Results: paper PMC6528465 (ACS infectious diseases, 2018)

Tested on: Mtb K204
Format: cell-based, Mycobacterium tuberculosis
Details: no inhibitor

NC[C@H]1O[C@H](O[C@H]2[C@H](O)[C@@H](O[C@H]3O[C@H](CO)[C@@H](O)[C@H](N)[C@H]3O)[C@H](N)C[C@@H]2N)[C@H](O)[C@@H](O)[C@@H]1O [KAN, kanamycin]
K204 MICKAN: >10 µg/mL
